# Measurements taken from patent publication US10543166B2, “Implantable drug delivery devices and methods of making the same” (TARIS Biomedical LLC, priority 2009, dated 2020).
# Key:
# [1] = In vitro drug release by diffusion through the wall of silicone tube devices; assay type: physicochemical; details: silicone tube ID about 0.060 in, OD 0.076 in, length about 3 cm; solid tablets, payload about 60 mg; no aperture; in vitro in water at about 37° C
# Method: A study was performed to determine the feasibility of delivering drug through the wall of a drug reservoir via diffusion. Devices were formed form silicone tubes having an inner diameter of about 0.060 inches, an outer diameter of 0.076 inches, and a length of about 3 cm. The devices were loaded with solid drug tablets of lidocaine, for a total payload of about 60 mg. Some of the devices included an aperture formed through the tube wall, the aperture having a diameter of 150 μm. These devices were loaded with solid tablets of either lidocaine hydrochloride monohydrate or a combination of lidocaine hydrochloride monohydrate and lidocaine base. […] The devices were tested in vitro in water at about 37° C.
# [2] = In vitro drug release through both the wall and apertures of silicone tube devices; assay type: physicochemical; details: in vitro in water at about 37° C
# Method: Another study was performed to investigate the feasibility of delivering drug from a device through both a wall of a drug reservoir and from an aperture in the wall of the drug reservoir. Devices were formed form silicone tubes having a length of about 3 cm. The devices were loaded with solid drug tablets of lidocaine base, for a total payload of about 60 mg. […] The devices were tested in vitro in water at about 37° C.
compound,measurement,setting,value
CCN(CC)CC(=O)Nc1c(C)cccc1C [lidocaine base],delivery of drug via diffusion through a silicone wall without an aperture,[1],feasible to deliver drug via diffusion through a silicone wall without an aperture
same,effect of apertures on release rate,"[2]; devices with 0, 1 (150 μm), 2, 30 or 60 (360 μm) apertures",release rate can be increased by adding apertures to the device
same,release from a silicone tube without any apertures,"[2]; silicone tubes about 3 cm, solid tablets, payload about 60 mg",can be released from a silicone tube without any apertures
